# Experimental data: patent US8192962B2, “Processes for detecting toxic substances” (Daikin Industries, Ltd., priority 2001, dated 2012)
# System: Energy system protein genes
# Assay: DNA chip mRNA expression in yeast, energy system protein genes (Table 4)
# Type: cell-based, Saccharomyces cerevisiae S288C
# Summary of the method: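 Expression change after 2 h toxicant exposure (growth-inhibiting, sub-lethal) of log-phase S. cerevisiae S288C at 25° C. Oligo-dT-purified mRNA was labeled with Cy3-dUTP or Cy5-dUTP and hybridized >12 h at 65° C. to a genome-wide chip; ratio of scanned fluorescence to control.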
structure (smiles),measurement,setting,value
"CN(C)C(=S)SSC(=S)N(C)C [(10), Tetramethylthiuram disulfide]",The level of expressed mRNA in the presence of chemical substance/The level of expressed mRNA in the absence of chemical substance,"yeast gene YJL216C, cells incubated two hours with the chemical substance",1.3
same,The level of expressed mRNA in the presence of chemical substance/The level of expressed mRNA in the absence of chemical substance,yeast gene YJR009C,1.3
same,The level of expressed mRNA in the presence of chemical substance/The level of expressed mRNA in the absence of chemical substance,yeast gene YJR048W,1.5
same,The level of expressed mRNA in the presence of chemical substance/The level of expressed mRNA in the absence of chemical substance,"yeast gene YJR121W, cells incubated two hours with the chemical substance",1.3
same,The level of expressed mRNA in the presence of chemical substance/The level of expressed mRNA in the absence of chemical substance,yeast gene YJR155W,18.8
same,The level of expressed mRNA in the presence of chemical substance/The level of expressed mRNA in the absence of chemical substance,"yeast gene YKL016C, cells incubated two hours with the chemical substance",1.8
same,The level of expressed mRNA in the presence of chemical substance/The level of expressed mRNA in the absence of chemical substance,"yeast gene YKL060C, cells incubated two hours with the chemical substance",0.8
same,The level of expressed mRNA in the presence of chemical substance/The level of expressed mRNA in the absence of chemical substance,"yeast gene YKL141W, cells incubated two hours with the chemical substance",0.5
same,The level of expressed mRNA in the presence of chemical substance/The level of expressed mRNA in the absence of chemical substance,"yeast gene YKL148C, cells incubated two hours with the chemical substance",1.7
same,The level of expressed mRNA in the presence of chemical substance/The level of expressed mRNA in the absence of chemical substance,"yeast gene YKR009C, cells incubated two hours with the chemical substance",2.1
same,The level of expressed mRNA in the presence of chemical substance/The level of expressed mRNA in the absence of chemical substance,"yeast gene YKR058W, cells incubated two hours with the chemical substance, 25° C., YPD medium",1.2
same,The level of expressed mRNA in the presence of chemical substance/The level of expressed mRNA in the absence of chemical substance,yeast gene YKR097W,3.3
same,The level of expressed mRNA in the presence of chemical substance/The level of expressed mRNA in the absence of chemical substance,"yeast gene YLL041C, cells incubated two hours with the chemical substance",0.8
same,The level of expressed mRNA in the presence of chemical substance/The level of expressed mRNA in the absence of chemical substance,"yeast gene YLR038C, cells incubated two hours with the chemical substance",0.9
same,The level of expressed mRNA in the presence of chemical substance/The level of expressed mRNA in the absence of chemical substance,"yeast gene YLR044C, cells incubated two hours with the chemical substance",1.2
same,The level of expressed mRNA in the presence of chemical substance/The level of expressed mRNA in the absence of chemical substance,"yeast gene YLR134W, cells incubated two hours with the chemical substance",0.7
same,The level of expressed mRNA in the presence of chemical substance/The level of expressed mRNA in the absence of chemical substance,"yeast gene YLR258W, cells incubated two hours with the chemical substance",1.3
same,The level of expressed mRNA in the presence of chemical substance/The level of expressed mRNA in the absence of chemical substance,"yeast gene YLR284C, cells incubated two hours with the chemical substance",0.9
same,The level of expressed mRNA in the presence of chemical substance/The level of expressed mRNA in the absence of chemical substance,"yeast gene YLR295C, cells incubated two hours with the chemical substance, 25° C., YPD medium",1.2
same,The level of expressed mRNA in the presence of chemical substance/The level of expressed mRNA in the absence of chemical substance,"yeast gene YLR304C, cells incubated two hours with the chemical substance",2.2
same,The level of expressed mRNA in the presence of chemical substance/The level of expressed mRNA in the absence of chemical substance,yeast gene YLR345W,4.0
same,The level of expressed mRNA in the presence of chemical substance/The level of expressed mRNA in the absence of chemical substance,"yeast gene YLR354C, cells incubated two hours with the chemical substance",0.9
same,The level of expressed mRNA in the presence of chemical substance/The level of expressed mRNA in the absence of chemical substance,"yeast gene YLR377C, cells incubated two hours with the chemical substance",1.6
same,The level of expressed mRNA in the presence of chemical substance/The level of expressed mRNA in the absence of chemical substance,"yeast gene YLR395C, cells incubated two hours with the chemical substance",0.9
same,The level of expressed mRNA in the presence of chemical substance/The level of expressed mRNA in the absence of chemical substance,yeast gene YML087C,4.9
same,The level of expressed mRNA in the presence of chemical substance/The level of expressed mRNA in the absence of chemical substance,"yeast gene YML120C, cells incubated two hours with the chemical substance",1.5
same,The level of expressed mRNA in the presence of chemical substance/The level of expressed mRNA in the absence of chemical substance,"yeast gene YML129C, cells incubated two hours with the chemical substance",2.2
same,The level of expressed mRNA in the presence of chemical substance/The level of expressed mRNA in the absence of chemical substance,"yeast gene YMR073C, cells incubated two hours with the chemical substance",1.2
same,The level of expressed mRNA in the presence of chemical substance/The level of expressed mRNA in the absence of chemical substance,yeast gene YMR118C,1.4
same,The level of expressed mRNA in the presence of chemical substance/The level of expressed mRNA in the absence of chemical substance,"yeast gene YMR205C, cells incubated two hours with the chemical substance",0.8
same,The level of expressed mRNA in the presence of chemical substance/The level of expressed mRNA in the absence of chemical substance,"yeast gene YMR261C, cells incubated two hours with the chemical substance",1.3
same,The level of expressed mRNA in the presence of chemical substance/The level of expressed mRNA in the absence of chemical substance,"yeast gene YMR267W, cells incubated two hours with the chemical substance, 25° C., YPD medium",0.8
same,The level of expressed mRNA in the presence of chemical substance/The level of expressed mRNA in the absence of chemical substance,"yeast gene YMR323W, cells incubated two hours with the chemical substance",1.3
same,The level of expressed mRNA in the presence of chemical substance/The level of expressed mRNA in the absence of chemical substance,yeast gene YNL071W,1.2
same,The level of expressed mRNA in the presence of chemical substance/The level of expressed mRNA in the absence of chemical substance,"yeast gene YNL202W, cells incubated two hours with the chemical substance",1.1
same,The level of expressed mRNA in the presence of chemical substance/The level of expressed mRNA in the absence of chemical substance,yeast gene YNL241C,7.4
same,The level of expressed mRNA in the presence of chemical substance/The level of expressed mRNA in the absence of chemical substance,yeast gene YNL331C,36.3
same,The level of expressed mRNA in the presence of chemical substance/The level of expressed mRNA in the absence of chemical substance,"yeast gene YOL086C, cells incubated two hours with the chemical substance",1.2
same,The level of expressed mRNA in the presence of chemical substance/The level of expressed mRNA in the absence of chemical substance,yeast gene YOL157C,4.8
same,The level of expressed mRNA in the presence of chemical substance/The level of expressed mRNA in the absence of chemical substance,yeast gene YOL165C,23.3
same,The level of expressed mRNA in the presence of chemical substance/The level of expressed mRNA in the absence of chemical substance,yeast gene YOR136W,3.4
same,The level of expressed mRNA in the presence of chemical substance/The level of expressed mRNA in the absence of chemical substance,"yeast gene YOR142W, cells incubated two hours with the chemical substance",1.5
same,The level of expressed mRNA in the presence of chemical substance/The level of expressed mRNA in the absence of chemical substance,"yeast gene YOR178C, cells incubated two hours with the chemical substance",1.7
same,The level of expressed mRNA in the presence of chemical substance/The level of expressed mRNA in the absence of chemical substance,"yeast gene YOR388C, cells incubated two hours with the chemical substance",1.4
same,The level of expressed mRNA in the presence of chemical substance/The level of expressed mRNA in the absence of chemical substance,"yeast gene YPL031C, cells incubated two hours with the chemical substance",1.4
same,The level of expressed mRNA in the presence of chemical substance/The level of expressed mRNA in the absence of chemical substance,"yeast gene YPL061W, cells incubated two hours with the chemical substance",0.7
same,The level of expressed mRNA in the presence of chemical substance/The level of expressed mRNA in the absence of chemical substance,yeast gene YPL088W,2.8
same,The level of expressed mRNA in the presence of chemical substance/The level of expressed mRNA in the absence of chemical substance,yeast gene YPL171C,50.6
same,The level of expressed mRNA in the presence of chemical substance/The level of expressed mRNA in the absence of chemical substance,yeast gene YPL240C,2.6
same,The level of expressed mRNA in the presence of chemical substance/The level of expressed mRNA in the absence of chemical substance,"yeast gene YPL262W, cells incubated two hours with the chemical substance",5.8
same,The level of expressed mRNA in the presence of chemical substance/The level of expressed mRNA in the absence of chemical substance,"yeast gene YPL275W, cells incubated two hours with the chemical substance",1.2
same,The level of expressed mRNA in the presence of chemical substance/The level of expressed mRNA in the absence of chemical substance,"yeast gene YPL276W, cells incubated two hours with the chemical substance",1.8
same,The level of expressed mRNA in the presence of chemical substance/The level of expressed mRNA in the absence of chemical substance,"yeast gene YPR048W, cells incubated two hours with the chemical substance",2.1
same,The level of expressed mRNA in the presence of chemical substance/The level of expressed mRNA in the absence of chemical substance,"yeast gene YPR184W, cells incubated two hours with the chemical substance",3.2
